Source: the NIST ThermoML archive (doi:10.1021/je8006138)
Numbers after ± are expanded uncertainties.

Assays:
[1] = 101 kPa, Liquid; for viscosity: Capillary tube (Ostwald / Ubbelohde) method; for mass density: Pycnometric method
[2] = xn = mol fraction of the nth substance listed; conditions: 101 kPa, Liquid; for viscosity: Capillary tube (Ostwald / Ubbelohde) method; for mass density: Pycnometric method

C1CCCCC1 [cyclohexane]
[1]
Conditions	mass density [kg/m3]	viscosity [mPa·s]
293.15 K	778.6 ± 0.3	0.984 ± 0.009
298.15 K	773.9 ± 0.3	0.903 ± 0.008
303.15 K	769.2 ± 0.3	0.83 ± 0.008

C1CCCCC1 [cyclohexane] + CCCCC(CC)COP(=O)(OCC(CC)CCCC)OCC(CC)CCCC
[2], x2 = 0
Conditions	mass density [kg/m3]	viscosity [mPa·s]
293.15 K	778.6 ± 0.3	0.984 ± 0.009
298.15 K	773.9 ± 0.3	0.903 ± 0.008
303.15 K	769.2 ± 0.3	0.83 ± 0.008

CCCCCC [hexane]
[1]
Conditions	mass density [kg/m3]	viscosity [mPa·s]
293.15 K	659.9 ± 0.2	0.319 ± 0.006
298.15 K	655.3 ± 0.2	0.304 ± 0.006
303.15 K	650.8 ± 0.2	0.29 ± 0.006

CCCCCC [hexane] + CCCCC(CC)COP(=O)(OCC(CC)CCCC)OCC(CC)CCCC
[2], x2 = 0
Conditions	mass density [kg/m3]	viscosity [mPa·s]
293.15 K	659.9 ± 0.2	0.319 ± 0.006
298.15 K	655.3 ± 0.2	0.304 ± 0.006
303.15 K	650.8 ± 0.2	0.29 ± 0.006

CCCCC(CC)COP(=O)(OCC(CC)CCCC)OCC(CC)CCCC (stereo not given) [tris(2-ethylhexyl) phosphate]
[1]
Conditions	mass density [kg/m3]	viscosity [mPa·s]
293.15 K	923.8 ± 0.4	14.09 ± 0.095
298.15 K	920.1 ± 0.4	11.62 ± 0.079
303.15 K	916.4 ± 0.4	9.708 ± 0.067

CCCCC(CC)COP(=O)(OCC(CC)CCCC)OCC(CC)CCCC (stereo not given) [tris(2-ethylhexyl) phosphate] + C1CCCCC1
[2]
Conditions	mass density, 293.15 K [kg/m3]	mass density, 298.15 K [kg/m3]	mass density, 303.15 K [kg/m3]	viscosity, 293.15 K [mPa·s]	viscosity, 298.15 K [mPa·s]	viscosity, 303.15 K [mPa·s]
x1 = 0.0997	823.7 ± 0.3	819.4 ± 0.3	815.1 ± 0.3	1.709 ± 0.012	1.544 ± 0.011	1.404 ± 0.011
x1 = 0.1995	852.5 ± 0.3	848.3 ± 0.3	844.2 ± 0.3	2.71 ± 0.017	2.423 ± 0.016	2.176 ± 0.015
x1 = 0.2978	871.1 ± 0.3	867.1 ± 0.3	863.1 ± 0.3	3.894 ± 0.025	3.415 ± 0.022	3.025 ± 0.02
x1 = 0.4007	885.8 ± 0.3	881.8 ± 0.3	877.9 ± 0.3	5.246 ± 0.034	4.532 ± 0.03	3.948 ± 0.026
x1 = 0.4965	895.8 ± 0.3	892 ± 0.3	888 ± 0.4	6.629 ± 0.042	5.665 ± 0.037	4.896 ± 0.032
x1 = 0.582	902.8 ± 0.3	899 ± 0.4	895.1 ± 0.4	7.908 ± 0.05	6.682 ± 0.043	5.732 ± 0.038
x1 = 0.6955	910.4 ± 0.4	906.6 ± 0.4	902.8 ± 0.4	9.64 ± 0.061	8.09 ± 0.052	6.862 ± 0.045
x1 = 0.7732	914.6 ± 0.4	910.8 ± 0.4	907 ± 0.4	10.8 ± 0.069	9.002 ± 0.059	7.619 ± 0.051
x1 = 0.8997	920.2 ± 0.4	916.5 ± 0.4	912.6 ± 0.4	12.64 ± 0.083	10.5 ± 0.07	8.806 ± 0.06
x1 = 1	923.8 ± 0.4	920.1 ± 0.4	916.4 ± 0.4	14.09 ± 0.095	11.62 ± 0.079	9.708 ± 0.067

CCCCC(CC)COP(=O)(OCC(CC)CCCC)OCC(CC)CCCC (stereo not given) [tris(2-ethylhexyl) phosphate] + CCCCCC
[2]
Conditions	mass density, 293.15 K [kg/m3]	mass density, 298.15 K [kg/m3]	mass density, 303.15 K [kg/m3]	viscosity, 293.15 K [mPa·s]	viscosity, 298.15 K [mPa·s]	viscosity, 303.15 K [mPa·s]
x1 = 0.1027	739.4 ± 0.3	735.2 ± 0.3	730.9 ± 0.3	0.638 ± 0.007	0.594 ± 0.007	0.56 ± 0.007
x1 = 0.1999	789.2 ± 0.3	785 ± 0.3	780.9 ± 0.3	1.103 ± 0.009	1.019 ± 0.009	0.948 ± 0.008
x1 = 0.2976	823.2 ± 0.3	819 ± 0.3	815 ± 0.3	1.754 ± 0.012	1.608 ± 0.011	1.475 ± 0.01
x1 = 0.4047	851.5 ± 0.3	847.5 ± 0.3	843.5 ± 0.3	2.753 ± 0.017	2.485 ± 0.015	2.246 ± 0.014
x1 = 0.5005	869.7 ± 0.3	865.8 ± 0.3	861.9 ± 0.3	3.881 ± 0.024	3.438 ± 0.021	3.053 ± 0.019
x1 = 0.5889	883.6 ± 0.3	879.6 ± 0.3	875.8 ± 0.3	5.1 ± 0.032	4.479 ± 0.028	3.923 ± 0.025
x1 = 0.7133	898.9 ± 0.3	895.3 ± 0.3	891.4 ± 0.4	7.34 ± 0.046	6.247 ± 0.04	5.405 ± 0.035
x1 = 0.8032	908.3 ± 0.4	904.5 ± 0.4	900.8 ± 0.4	9.121 ± 0.058	7.73 ± 0.05	6.583 ± 0.043
x1 = 0.8907	916.3 ± 0.4	912.6 ± 0.4	908.9 ± 0.4	11.18 ± 0.072	9.353 ± 0.061	7.935 ± 0.053
x1 = 1	923.8 ± 0.4	920.1 ± 0.4	916.4 ± 0.4	14.09 ± 0.095	11.62 ± 0.079	9.708 ± 0.067
